{"source": "patent US20160355483A1", "about": "“COMPOUND BINDING TO PPARG BUT NOT ACTING AS PROMOTER AND PHARMACEUTICAL COMPOSITION FOR TREATING PPARG-RELATED DISEASES CONTAINING SAME AS ACTIVE INGREDIENT” (Hyundai Pharm Co., Ltd., priority 2014, published 2016)"}
{"biological_target": "T1, PPARG (peroxisome proliferator activated receptor-gamma), GST-PPARG-LBD (Homo sapiens, UniProt P37231)", "T1 construct": "15 μL of 5 nM GST-PPARG-LBD and 5 nM Tb-GST-antibody were added; purchased Invitrogen PV4894", "T1 sequence (P37231 238-503 limits assumed)": "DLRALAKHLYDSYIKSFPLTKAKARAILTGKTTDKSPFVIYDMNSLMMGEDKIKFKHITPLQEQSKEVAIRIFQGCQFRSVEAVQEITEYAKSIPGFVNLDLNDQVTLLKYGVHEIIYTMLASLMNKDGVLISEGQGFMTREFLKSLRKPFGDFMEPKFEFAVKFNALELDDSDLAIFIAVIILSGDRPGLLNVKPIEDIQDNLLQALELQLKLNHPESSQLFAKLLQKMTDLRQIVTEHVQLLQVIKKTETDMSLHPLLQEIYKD", "experiment": "LanthaScreen TR-FRET PPARG Competitive Binding Assay", "parameters": "key: “+” indicates the degree of the binding activity, and as the number of “+” increases, the binding activity is stronger; ++: “+” indicates the degree of the binding activity, and as the number of “+” increases, the binding activity is stronger; +++: “+” indicates the degree of the binding activity, and as the number of “+” increases, the binding activity is stronger; ++++: “+” indicates the degree of the binding activity, and as the number of “+” increases, the binding activity is stronger", "conditions": "degree of binding activity", "in_short": "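Ratio of 518 nm to 488 nm time-resolved emission after a 1 h room-temperature incubation, in competition format with GST-PPARG ligand-binding domain. Values are expressed as 100% minus compound-to-vehicle ratio and related to rosiglitazone binding.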"}
{"smiles": "C[C@H](NC(=O)c1ccc2c(c1)CCCN2Cc1ccc(-c2ccccc2C(=O)O)cc1)c1cccc(OC(F)(F)F)c1", "note": "[Example 18, (S)-4′-((6-((1-(3-(trifluoromethoxy)phenyl)ethyl)carbamoyl)-3,4-dihydroquinoline-1(2H)-yl)methyl)-[1,1′-biphenyl]-2-carboxylic acid]", "Binding assay (1 μLM)": "+++"}
{"smiles": "Cc1ccc([C@H](C)NC(=O)c2ccc3c(c2)OCCN3Cc2ccc(-c3ccccc3C(=O)O)cc2)cc1F", "note": "[Example 80, (S)-4′-((7-((1-(3-fluoro-4-methylphenyl)ethyl)carbamoyl)-2H-benzo[b][1,4]oxazine-4(3H)-yl)methyl)-[1,1′-biphenyl]-2-carboxylic acid]", "Binding assay (1 μLM)": "++"}
{"smiles": "C[C@H](NC(=O)c1ccc2c(c1)OCCN2Cc1ccc(-c2ccccc2C(=O)[O-])cc1)c1ccc([N+](=O)[O-])cc1.[Na+]", "note": "[Example 105, sodium (S)-4′-((7-((1-(4-nitrophenyl)ethyl)carbamoyl)-2-benzo[b][1,4]oxazine-4(3H)-yl)methyl)-[1,1′-biphenyl]-2-carboxylate]", "Binding assay (1 μLM)": "+"}
{"smiles": "O=C(NCc1ccccc1)c1ccc2c(c1)OCCN2Cc1ccc(-c2ccccc2C(=O)O)cc1", "note": "[Example 91, 4′-((7-(benzylcarbamoyl)-2H-benzo[b][1,4]oxazine-4(3H)-yl)methyl)-[1,1′-biphenyl]-2-carboxylic acid]", "Binding assay (1 μLM)": "+++"}
{"smiles": "C[C@H](NC(=O)c1ccc2c(c1)OCCN2Cc1ccc(-c2ccccc2C(=O)O)cc1)c1ccc2ccccc2c1", "note": "[Example 87, (S)-4′-((7-((1-(naphthalene-2-yl)ethyl)carbamoyl)-2H-benzo[b][1,4]oxazine-4(3H)-yl)methyl)-[1,1′-biphenyl]-2-carboxylic acid]", "Binding assay (1 μLM)": "++++"}
{"smiles": "C[C@H](NC(=O)c1ccc2c(c1)OCCN2Cc1ccc(-c2ccccc2C(=O)O)c(F)c1)c1ccccc1", "note": "[Example 162, (S)-2′-fluoro-4′-((7-((1-phenylethyl)carbamoyl)-2H-benzo[b][1,4]oxazine-4(3H)-yl)methyl)-[1,1′-biphenyl]-2-carboxylic acid]", "Binding assay (1 μLM)": "+++"}
{"smiles": "Cc1ccc([C@H](C)NC(=O)c2ccc3c(c2)CCCN3Cc2cccc(-c3ccccc3C(N)=O)c2F)cc1F", "note": "[Example 133, (S)-1-((2′-carbamoyl-2-fluoro-[1,1′-biphenyl]-3-yl)methyl)-N-(1-(3-fluoro-4-methylphenyl)ethyl)-1,2,3,4-tetrahydroquinoline-6-carboxamide]", "Binding assay (1 μLM)": "+++"}
{"smiles": "C[C@H](NC(=O)c1ccc2c(c1)OCCN2Cc1ccc(-c2ccccc2C(=O)O)cc1)c1cccc(F)c1", "note": "[Example 84, (S)-4′-((7-((1-(3-fluorophenyl)ethyl)carbamoyl)-2H-benzo[b][1,4]oxazine-4(3H)-yl)methyl)-[1,1′-biphenyl]-2-carboxylic acid]", "Binding assay (1 μLM)": "++"}
{"smiles": "C[C@H](NC(=O)c1ccc2c(c1)OCCN2Cc1ccc(-c2ccccc2C(=O)[O-])cc1)c1ccccc1.[Na+]", "note": "[Example 103, sodium (S)-4′-((7-((1-phenylethyl)carbamoyl)-2H-benzo[b][1,4]oxazine-4(3H)-yl)methyl)-[1,1′-biphenyl]-2-carboxylate]", "Binding assay (1 μLM)": "++"}
{"smiles": "C[C@H](NC(=O)c1ccc2c(c1)OCCN2Cc1ccc(-c2ccccc2C(=O)O)cc1)c1ccc(Cl)cc1", "note": "[Example 64, (S)-4′-((7-((1-(4-chlorophenyl)ethyl)carbamoyl)-2H-benzo[b][1,4]oxazine-4(3H)-yl)methyl)-[1,1′-biphenyl]-2-carboxylic acid]", "Binding assay (1 μLM)": "+"}
{"smiles": "C[C@H](NC(=O)c1ccc2c(c1)OCCN2Cc1ccc(-c2ccccc2C(=O)O)cc1)c1cccc(C(F)(F)F)c1", "note": "[Example 86, (S)-4′-((7-((1-(3-(trifluoromethyl)phenyl)ethyl)carbamoyl)-2H-benzo[b][1,4]oxazine-4(3H)-yl)methyl)-[1,1′-biphenyl]-2-carboxylic acid]", "Binding assay (1 μLM)": "+++"}
{"smiles": "C[C@H](NC(=O)c1ccc2c(c1)CCCN2Cc1ccc(-c2ccccc2C(N)=O)cc1)c1cccc(Cl)c1", "note": "[Example 35, (S)-1-((2′-carbamoyl-[1,1′-biphenyl]-4-yl)methyl)-N-(1-(3-chlorophenyl)ethyl)-1,2,3,4-tetrahydroquinoline-6-carboxamide]", "Binding assay (1 μLM)": "+++"}
{"smiles": "C[C@H](NC(=O)c1ccc2c(c1)CCCN2Cc1ccc(-c2ccccc2C(N)=O)cc1)c1ccccc1F", "note": "[Example 42, (S)-1-((2′-carbamoyl-[1,1′-biphenyl]-4-yl)methyl)-N-(1-(2-fluorophenyl)ethyl)-1,2,3,4-tetrahydroquinoline-6-carboxamide]", "Binding assay (1 μLM)": "+++"}
{"smiles": "C[C@H](NC(=O)c1ccc2c(c1)OCCN2Cc1ccc(-c2ccccc2C(=O)O)cc1)c1ccc(OC(F)(F)F)cc1", "note": "[Example 75, (S)-4′-((7-((1-(4-(trifluoromethoxy)phenyl)ethyl)carbamoyl)-2H-benzo[b][1,4]oxazine-4(3H)-yl)methyl)-[1,1′-biphenyl]-2-carboxylic acid]", "Binding assay (1 μLM)": "+++"}
{"smiles": "C[C@H](NC(=O)c1ccc2c(c1)CCCN2Cc1cccc(-c2ccccc2C(=O)O)c1F)c1ccccc1", "note": "[Example 126, (S)-2′-fluoro-3′-((6-((1-phenylethyl)carbamoyl)-3,4-dihydroquinoline-1(2H)-yl)methyl)-[1,1′-biphenyl]-2-carboxylic acid]", "Binding assay (1 μLM)": "+++"}
{"smiles": "COc1cccc([C@H](C)NC(=O)c2ccc3c(c2)CCCN3Cc2ccc(-c3ccccc3C(N)=O)cc2)c1", "note": "[Example 40, (S)-1-((2′-carbamoyl-[1,1′-biphenyl]-4-yl)methyl)-N-(1-(3-methoxyphenyl)ethyl)-1,2,3,4-tetrahydroquinoline-6-carboxamide]", "Binding assay (1 μLM)": "+++"}
{"smiles": "C[C@H](NC(=O)c1ccc2c(c1)CCCN2Cc1ccc(-c2ccccc2C(=O)O)cc1)c1ccc([N+](=O)[O-])cc1", "note": "[Example 3, (S)-4′-((6-((1-(4-nitrophenyl)ethyl)carbamoyl)-3,4-dihydroquinoline-1(2H)-yl)methyl)-[1,1′-biphenyl]-2-caboxylic acid]", "Binding assay (1 μLM)": "+"}
{"smiles": "O=C(NCc1ccco1)c1ccc2c(c1)OCCN2Cc1ccc(-c2ccccc2C(=O)O)cc1", "note": "[Example 69, 4′-((7-((furan-2-ylmethyl)carbamoyl)-2H-benzo[b][1,4]oxazine-4(3H)-yl)methyl)-[1,1′-biphenyl]-2-carboxylic acid-A]", "Binding assay (1 μLM)": "+"}
{"smiles": "Cc1ccc([C@H](C)NC(=O)c2ccc3c(c2)CCCN3Cc2ccc(-c3ccccc3C(N)=O)cc2)cc1F", "note": "[Example 49, (S)-1-((2′-carbamoyl-[1,1′-biphenyl]-4-yl)methyl)-N-(1-(3-fluoro-4-methylphenyl)ethyl)-1,2,3,4-tetrahydroquinoline-6-carboxamide]", "Binding assay (1 μLM)": "+++"}
